One assay deals with T1, ALK(G1202R/L1196M) (Homo sapiens, UniProt Q9UM73, G1202R/L1196M).
T1 construct: purchased Carna
As to the kind of experiment: In vitro kinase inhibitory activity assay, Experimental method 2 (ADP-Glo). It is filed as biochemical. As to conditions: Experimental method 2; ATP 5.0 µM, substrate IGF1; read-out: Kinase half maximal inhibitory concentration IC50 ALK^G1202R/L1196M.

Assay [1] relates to Ba/F3-EML4-ALK-G1202R/L1196M. Description: Anti-proliferative activity test on Ba/F3 cell lines (CellTiter-Glo). The settings on record: Ba/F3 EML4-ALK-G1202R-L1196M; 72 hours; read-out: Half maximal inhibitory concentration IC50 for cells Ba/F3-EML4-ALK-G1202R/L1196 M. It is filed as cell-based. The method, boiled down:
(§1)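 Cells (2000/well) were exposed for 72 h at 37°C, 5% CO2, to an 8-point 3-fold series (1000× plate starting at 1 µM), with 0.1% DMSO final. Viability was read by CellTiter-Glo luminescence. Inhibition was normalised to DMSO (Max) and cell-free (Min) controls, and IC50 was taken from the curves.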
Background: ATP-based viability assays read luminescence as a measure of living cells.

For another assay, the system named is Ba/F3-TEL-TRKB. Described as above. It is filed as cell-based. As to conditions: Mus musculus, BaF3; 72 hours; read-out: Half maximal inhibitory concentration IC50 for cells Ba/F3-TEL-TRKB. The gist of the method:
as §1

T1 sequence (Q9UM73 19-1620 L1196M/G1202R): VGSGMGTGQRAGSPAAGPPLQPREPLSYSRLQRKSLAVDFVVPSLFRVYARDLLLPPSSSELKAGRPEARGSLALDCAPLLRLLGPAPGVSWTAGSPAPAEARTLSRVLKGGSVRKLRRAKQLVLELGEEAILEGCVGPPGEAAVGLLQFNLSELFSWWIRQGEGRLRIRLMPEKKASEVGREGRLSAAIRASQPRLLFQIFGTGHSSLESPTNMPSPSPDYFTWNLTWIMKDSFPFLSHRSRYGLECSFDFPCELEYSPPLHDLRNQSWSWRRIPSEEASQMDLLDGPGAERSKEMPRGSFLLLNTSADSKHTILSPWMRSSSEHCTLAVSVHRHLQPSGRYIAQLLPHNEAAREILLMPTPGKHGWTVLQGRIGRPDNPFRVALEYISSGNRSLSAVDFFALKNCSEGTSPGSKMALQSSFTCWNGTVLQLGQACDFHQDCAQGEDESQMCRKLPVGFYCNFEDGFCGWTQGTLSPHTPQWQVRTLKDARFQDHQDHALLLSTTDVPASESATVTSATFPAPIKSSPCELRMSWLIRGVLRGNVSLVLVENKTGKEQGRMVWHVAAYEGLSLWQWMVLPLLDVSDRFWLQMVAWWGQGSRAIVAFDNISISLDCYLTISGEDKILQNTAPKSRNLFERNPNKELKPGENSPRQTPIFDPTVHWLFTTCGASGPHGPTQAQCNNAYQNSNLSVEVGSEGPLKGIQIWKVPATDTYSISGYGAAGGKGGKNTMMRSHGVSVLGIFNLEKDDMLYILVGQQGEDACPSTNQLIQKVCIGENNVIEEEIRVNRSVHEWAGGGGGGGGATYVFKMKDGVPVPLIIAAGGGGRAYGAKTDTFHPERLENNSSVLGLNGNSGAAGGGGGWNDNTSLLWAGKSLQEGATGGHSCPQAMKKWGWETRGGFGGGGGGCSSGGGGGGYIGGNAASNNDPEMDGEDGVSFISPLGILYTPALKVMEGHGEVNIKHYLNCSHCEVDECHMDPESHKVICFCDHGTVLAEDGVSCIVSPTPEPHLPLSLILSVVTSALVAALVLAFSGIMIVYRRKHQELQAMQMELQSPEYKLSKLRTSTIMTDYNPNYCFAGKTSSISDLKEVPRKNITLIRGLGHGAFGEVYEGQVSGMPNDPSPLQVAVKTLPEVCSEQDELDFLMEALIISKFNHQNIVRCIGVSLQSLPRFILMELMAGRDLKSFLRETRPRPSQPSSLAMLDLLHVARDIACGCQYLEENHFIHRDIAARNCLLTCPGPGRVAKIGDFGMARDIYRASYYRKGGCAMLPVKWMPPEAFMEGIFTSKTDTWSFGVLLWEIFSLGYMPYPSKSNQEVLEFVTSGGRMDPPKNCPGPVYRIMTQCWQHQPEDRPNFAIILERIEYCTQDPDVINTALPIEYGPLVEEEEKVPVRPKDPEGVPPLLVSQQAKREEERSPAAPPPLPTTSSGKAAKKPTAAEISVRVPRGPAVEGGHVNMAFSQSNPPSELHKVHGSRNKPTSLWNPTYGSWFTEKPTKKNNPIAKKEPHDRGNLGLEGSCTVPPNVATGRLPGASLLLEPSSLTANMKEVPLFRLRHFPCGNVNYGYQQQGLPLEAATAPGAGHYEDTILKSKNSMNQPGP

In the case of `Cc1nn2cc3c4nc2c1C(=O)NC1(CC1)COc1ccc(F)cc1CN4[C@H](C(F)F)CO3` [Compound 016], the values for the IC50 (on ALK(G1202R/L1196M); in assay [1]; in the assay with Ba/F3-TEL-TRKB) were 0.9 nM, 12.5 nM and 0.6 nM, respectively.

Values taken from EP4559919A1, “TRICYCLIC-CONTAINING MACROCYCLIC COMPOUND AND USE THEREOF” (Medshine Discovery Inc., priority 2022, dated 2024).
